What follows are compounds tested against T1, MAGL protein (Homo sapiens, UniProt Q99685) (assay: 2-AG assay: MAGL inhibitory activity by hydrolysis of 2-arachidonoylglycerol to arachidonic acid, followed by mass spectrometry). Details: 8 μM 2-arachidonoylglycerol, 15 min preincubation, 30 min reaction at RT, RapidFire MS readout.
T1 sequence (Q99685 1-303): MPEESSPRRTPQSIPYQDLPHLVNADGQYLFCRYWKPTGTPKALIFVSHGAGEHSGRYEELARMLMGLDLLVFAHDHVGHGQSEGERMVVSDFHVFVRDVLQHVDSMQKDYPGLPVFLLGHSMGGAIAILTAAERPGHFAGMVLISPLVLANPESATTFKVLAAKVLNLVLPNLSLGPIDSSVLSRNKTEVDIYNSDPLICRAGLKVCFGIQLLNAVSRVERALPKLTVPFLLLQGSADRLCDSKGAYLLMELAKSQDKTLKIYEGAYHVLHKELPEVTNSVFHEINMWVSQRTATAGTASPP
Format: biochemical
Procedure, shortened: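 MAGL was preincubated 15 min at RT with compound (12.5 to […], 3-fold steps) in 50 mM TRIS, 1 mM EDTA, 0.01% Tween-20, 2.5% DMSO. The reaction ran 30 min at RT with 8 μM 2-AG. Arachidonic acid was quantified by RapidFire SPE-MS/MS against a d8-arachidonic acid internal standard.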

IC50	SMILES
1550 nM	Cc1cc(C23CC(C4CN(C(=O)N5CC6(CC(c7nc(C8CC(F)(F)C8)n[nH]7)C6)C5)C4)(C2)C3)[nH]n1 [compound 975]
75.3 nM	O=C(N1CC2(CC(Cc3nc(C(F)(F)F)cs3)C2)C1)N1CC2(CC(c3nc(C4CC(F)(F)C4)n[nH]3)C2)C1 [compound 489]
0.19 nM	O=C(N1CC2(CC(Cc3cc(C(F)(F)F)ccn3)C2)C1)N1CC2(CC(c3nnc(C4CC4)[nH]3)C2)C1 [compound 118]
0.09 nM	CS(=O)(=O)c1ccc(-c2ccc(C3CN(C(=O)N4CC5(CC(c6nnc(C7CC7)[nH]6)C5)C4)C3)cc2)c(Cl)c1 [compound 338]
2.42 nM	NC(=O)[C@@H]1CCCN1c1ccc(C2CN(C(=O)N3CC4(CC(c5nnc(C6CC6)[nH]5)C4)C3)C2)cc1 [Example 397, (2S)-1-[4-[1-[6-(5-cyclopropyl-4H-1,2,4-triazol-3-yl)-2-azaspiro[3.3]heptane-2-carbonyl]azetidin-3-yl]phenyl]pyrrolidine-2-carboxamide]
98.5 nM	O=C(N1CC2(CCC(Cc3ccc(Cl)cn3)CC2)C1)N1CC2(CC(c3nc(C4CC(F)(F)C4)n[nH]3)C2)C1 [compound 756]
45 nM	CC1(NS(=O)(=O)N2CC3(CN(C(=O)N4CC5(CC(c6nnc(C7CC7)[nH]6)C5)C4)C3)C2)CC1 [compound 213]
13.2 nM	CC(F)(F)c1noc(CN2CC3(C2)CN(C(=O)N2CC4(CC(c5nc(C6CC6)n[nH]5)C4)C2)C3)n1 [compound 743]
13.1 nM	O=C(N1CC2(CC(c3nc(C4CC4)n[nH]3)C2)C1)N1CC2(CN(Cc3conc3C(F)(F)F)C2)C1 [compound 663]
7.08 nM	O=C(N1CC2(CCN(Cc3cc(C(F)(F)F)[nH]n3)CC2)C1)N1CC2(CC(c3nc(C4CC4)n[nH]3)C2)C1 [compound 525]
413 nM	O=C(N1CC2(CC(Cc3ccc(C(F)(F)F)nn3)C2)C1)N1CC2(CC(c3nc(C4CC(F)(F)C4)n[nH]3)C2)C1 [compound 452]
497 nM	O=C(N1CC(C23CC(S(=O)(=O)CC4(C(F)(F)F)CC4)(C2)C3)C1)N1CC2(CC(c3nc(C4CC4)n[nH]3)C2)C1 [compound 528]
5.16 nM	O=C(N1CC2(CC(Cn3cc(C(F)(F)F)ncc3=O)C2)C1)N1CC2(CC(c3nc(C4CC4)n[nH]3)C2)C1 [compound 960]
67.4 nM	O=C(N1CC2(CC(c3nc(C4CC4)n[nH]3)C2)C1)N1CC2(CN(Cc3ncc(C(F)(F)F)[nH]3)C2)C1 [compound 641]
0.66 nM	O=C(N1CC2(CC(Cc3nc(C(F)(F)F)co3)C2)C1)N1CC2(CC(c3nnc(C4CC4)[nH]3)C2)C1 [compound 61]
1.74 nM	O=C(N1CC2(CC(Cn3cnc(C(F)(F)F)n3)C2)C1)N1CC2(CC(c3nnc(C4CC4)[nH]3)C2)C1 [compound 71]
38.1 nM	O=C(N1CC(OCc2cncc(C(F)(F)F)c2)C1)N1CC2(CC(c3nnc(C4CC4)[nH]3)C2)C1 [compound 329]
17.2 nM	N=S(=O)(c1cccc(CC2CC3(C2)CN(C(=O)N2CC4(CC(c5nc(C6CC(F)(F)C6)n[nH]5)C4)C2)C3)c1)C(F)(F)F (stereo not shown) [compound 657]
1.02 nM	O=C(N1CC2(CCN(c3ncc(Cl)cc3F)CC2)C1)N1CC2(CC(c3nnc(C4CC4)[nH]3)C2)C1 [compound 281]
21.4 nM	CC(C)c1ccc(N(C)c2ccc(C3CN(C(=O)N4CC5(CC(c6nnc(C7CC7)[nH]6)C5)C4)C3)cn2)cc1 [compound 382]

IC50	SMILES
101 nM	O=C(N1CC(C23CC(c4nnc(C5(C(F)(F)F)CC5)s4)(C2)C3)C1)N1CC2(CC(c3nc(C4(O)CC4)n[nH]3)C2)C1 [compound 447]
15.6 nM	COc1cc(C(F)(F)F)ccc1CNC1CN(C(=O)N2CC3(CC(c4nnc(C5CC5)[nH]4)C3)C2)C1 [compound 197]
377 nM	O=C(N1CC2(CC(CNC3CS(=O)(=O)C3)C2)C1)N1CC2(CC(c3nnc(C4CC4)[nH]3)C2)C1 [compound 364]
9.25 nM	Cn1nc(C(F)(F)F)cc1CN1CCC2(CC1)CN(C(=O)N1CC3(CC(c4nc(C5CC5)n[nH]4)C3)C1)C2 [compound 539]
0.27 nM	NC(=O)c1cc(CC2CC3(C2)CN(C(=O)N2CC4(CC(c5nc(C6CC6)n[nH]5)C4)C2)C3)ccc1OC(F)(F)F [compound 914]
0.08 nM	O=C(N1CC2(CC(Cc3cn[nH]c3C(F)(F)F)C2)C1)N1CC2(CC(c3nc(C4CC4)n[nH]3)C2)C1 [compound 607]
12.7 nM	O=C(N1CC(c2ccc(C3(C(F)(F)F)CC3)cc2)C1)N1CC2(CC(c3nc(C4CC(F)(F)C4)n[nH]3)C2)C1 [compound 563]
1.59 nM	O=C(N1CC(c2ccc(-n3ccc(C(F)(F)F)cc3=O)cc2)C1)N1CC2(CC(c3nnc(C4CC4)[nH]3)C2)C1 [compound 284]
1450 nM	O=C(N1CC2(CC(c3nc(C4CC(F)(F)C4)n[nH]3)C2)C1)N1CC2(CN(Cc3cc(C(F)(F)F)ns3)C2)C1 [compound 561]
2360 nM	O=C(N1CC2(CC(Cc3ccc(C(F)(F)F)nc3)C2)C1)N1CC2(CC(c3ncn[nH]3)C2)C1 [compound 986]
61 nM	O=C(N1CC(c2ccc(C3(c4nnn[nH]4)CC3)cc2)C1)N1CC2(CC(c3nnc(C4CC4)[nH]3)C2)C1 [compound 379]
20.8 nM	Cn1nc(CC2CC3(C2)CN(C(=O)N2CC4(CC(c5nc(C6CC(F)(F)C6)n[nH]5)C4)C2)C3)cc1C(F)(F)F [compound 511]
0.61 nM	O=C(N1CC2(CC(Cn3cc(CC(F)(F)F)cn3)C2)C1)N1CC2(CC(c3nc(C4CC4)n[nH]3)C2)C1 [compound 690]
34.4 nM	N=S(=O)(c1ccc(CC2CC3(C2)CN(C(=O)N2CC4(CC(c5nc(C6CC(F)(F)C6)n[nH]5)C4)C2)C3)cc1)C(F)(F)F (stereo not shown) [compound 603]
3.94 nM	O=C(N1CC2(CC(CNCC3(C(F)(F)F)CC3)C2)C1)N1CC2(CC(c3nnc(C4CC4)[nH]3)C2)C1 [compound 352]
0.82 nM	O=C(N1CC2(CCC(Cc3cnc(C(F)(F)F)cn3)C2)C1)N1CC2(CC(c3nnc(C4CC4)[nH]3)C2)C1 (single isomer, unassigned) [compound 150]
5.92 nM	O=C(N1CCC(OCc2ccc(OC(F)(F)F)cc2F)CC1)N1CC2(CC(c3nc(C4CC4)n[nH]3)C2)C1 [compound 905]
670 nM	Cc1nn(C)c(Cl)c1CN1CCN(C(=O)N2CC3(CC(c4nc(C5CC5)n[nH]4)C3)C2)CC1 [Example 881, [4-[(5-chloro-1,3-dimethyl-pyrazol-4-yl)methyl]piperazino]-[6-(3-cyclopropyl-1H-1,2,4-triazol-5-yl)-2-azaspiro[3.3]heptan-2-yl]methanone]
2.64 nM	O=C(N1CC2(CC(Cc3ccc(C(F)(F)F)nn3)C2)C1)N1CC2(CC(c3nc(C4(F)CC4)n[nH]3)C2)C1 [compound 460]
56.6 nM	N#Cc1cc(Cl)cnc1OCC1CCN(C(=O)N2CC3(CC(c4nc(C5CC5)n[nH]4)C3)C2)CC1 [Example 908]

IC50	SMILES
0.86 nM	N=S(=O)(c1ccc(C2CN(C(=O)N3CC4(CC(c5nc(C6(F)CC6)n[nH]5)C4)C3)C2)cc1)C(F)(F)F (stereo not shown) [compound 564]
8.96 nM	Cn1ncc(CN2CC3(C2)CN(C(=O)N2CC4(CC(c5nc(C6CC6)n[nH]5)C4)C2)C3)c1C(F)(F)F [compound 688]
1.38 nM	Cn1ncc(OC2CC3(C2)CN(C(=O)N2CC4(CC(c5nc(C6CC6)n[nH]5)C4)C2)C3)c1C(F)(F)F [compound 592]
46.9 nM	O=C(N1CC2(CC(Cc3cncc(C(F)(F)F)c3)C2)C1)N1CC2(CC(c3nc(C4CC(F)(F)C4)n[nH]3)C2)C1 [compound 545]
0.05 nM	N#Cc1ccc(CC2CC3(C2)CN(C(=O)N2CC4(CC(c5nc(C6CC6)n[nH]5)C4)C2)C3)c(F)c1 [compound 772]
2.74 nM	Cn1ncc(C(F)(F)F)c1CN1CC2(C1)CN(C(=O)N1CC3(CC(c4nc(C5CC5)n[nH]4)C3)C1)C2 [compound 664]
15.8 nM	O=C(N1CC2(CC(c3nnc(C4(O)CC4)[nH]3)C2)C1)N1CC2(CN(Cc3ccc(F)cc3F)C2)C1 [compound 157]
3.39 nM	O=C(N1CC2(CC(c3nc(C4(O)CC4)n[nH]3)C2)C1)N1CC2(CCN(Cc3cccc(S(=O)(=O)C(F)(F)F)c3)C2)C1 [compound 482]
0.08 nM	N#Cc1cc(C(F)(F)F)ccc1CC1CC2(C1)CN(C(=O)N1CC3(CC(c4nnc(C5(O)CC5)[nH]4)C3)C1)C2 [compound 477]
12.6 nM	Cn1nc(C2CC2)cc1CN1CC2(C1)CN(C(=O)N1CC3(CC(c4nc(C5CC5)n[nH]4)C3)C1)C2 [compound 623]
1.32 nM	CC(C)(C)c1csc(CN2CC3(C2)CN(C(=O)N2CC4(CC(c5nc(C6CC6)n[nH]5)C4)C2)C3)n1 [compound 740]
27.1 nM	O=C(N1CC2(CC(c3nc(C4CC4)n[nH]3)C2)C1)N1CC2(CN(Cc3coc(C(F)(F)F)n3)C2)C1 [compound 763]
1.03 nM	O=C(N1CC(c2ccc(C3CC(C(F)F)C3)cc2)C1)N1CC2(CC(c3nnc(C4(O)CC4)[nH]3)C2)C1 (stereo not shown) [compound 282]
15.2 nM	Cc1nc(C)c(CN2CC3(C2)CN(C(=O)N2CC4(CC(c5nnc(C6CC6)[nH]5)C4)C2)C3)s1 [compound 877]
0.58 nM	O=C(N1CC2(CC(Cc3ccc(F)cn3)C2)C1)N1CC2(CC(c3nnc(C4CC4)[nH]3)C2)C1 [compound 43]
29.2 nM	O=C(N1CC2(CC(Cn3nccc3C(F)(F)F)C2)C1)N1CC2(CC(c3nc(C4COC4)n[nH]3)C2)C1 [compound 716]
179 nM	CP1(=O)CCN(c2ccc(C3CN(C(=O)N4CC5(CC(c6nnc(C7CC7)[nH]6)C5)C4)C3)cn2)CC1 [compound 53]
0.01 nM	O=C(N1CC2(CC(Cc3ccc(F)cc3C(F)(F)F)C2)C1)N1CC2(CC(c3nnc(C4CC4)[nH]3)C2)C1 [compound 33]

From US20250099448A1, “HETEROCYCLIC COMPOUNDS” (Hoffmann-La Roche Inc., priority 2022, published 2025)
